Columns and labels:
[1] = Pharmacokinetic study of transdermal APAP in rats; assay type: in vivo, rats (Sprague-Dawley); details: 100 mg APAP enhancer-containing transdermal system vs regular 100 mg patch, n=6 per group (FIG. 3)
Description: Methodology: Anesthetized (15 mg/kg pentobarbital sodium i.p.) rats (Sprague-Dawley, 500-600 g), were placed on their back, the abdominal hair was trimmed off, and the skin was washed gently with distilled water. Anesthesia was maintained with 0.1 ml pentobarbital (15 mg/ml) along the experiment. […] Blood samples were taken from the tail vein into heparanized tubes at t=0, 1, 2, 3, 4, 5, 7 and 9 hours from the time of application.
After centrifugation, plasma were analyzed for APAP by EMIT kit (Serum Tox EIA Assay, Diagnostic Reagents, Inc.).

[2] = cited from earlier work
[3] = male, CD1 hairless, mouse, 24 h, pH 7.4
[4] = single application of hydrogel disc system to skin; neonates with apnea; cited from earlier work

In the case of `CC(=O)Nc1ccc(O)cc1` [APAP, Acetaminophen], the “systemic penetration (plasma APAP)” value [1] is listed as “significant increase in penetration”, the Volume of distribution ([2]; in vivo) is listed as 0.95 L/kg and the “binding to plasma proteins” value ([2]; in vivo) is listed as 20%. For the same compound, the effective plasma concentrations ([2]; in vivo) was 10 to 20 µg/mL, the “plasma elimination half life” value ([2]; similar in children and adults) was “about 2 hours” and the “drug recovered in the urine” value ([2]; therapeutic doses) was 90-100%. For the same compound, the “recovered in urine conjugated with cysteine” value ([2]; therapeutic doses) was “about 2%”, the “recovered in urine conjugated with glucuronic acid” value ([2]; therapeutic doses) was “about 60%” and the “recovered in urine conjugated with sulfuric acid” value ([2]; therapeutic doses) was “about 35%”. For the same compound, the “unchanged APAP in urine” value ([2]; therapeutic doses) was “about 2%”.

In the case of `O=C(O)Cc1ccccc1Nc1c(Cl)cccc1Cl` [diclofenac], the “higher dose of diclofenac delivered vs regular application of Voltaren Emulgel” value [3] is reported as 12 fold.

For `Cn1c(=O)c2[nH]cnc2n(C)c1=O` [theophylline], the “duration of therapeutic concentrations” value [4] is listed as “up to 3 days”.

— US20030170296A1, “Transdermal drug delivery system” (priority 2000, published 2003)
